Results as given in US7863313B2, “Methods for the treatment of inflammatory diseases” (Cortical PTY LTD, priority 2003, dated 2011).
Marks after values point to notes of the source that are not given here.

Experiments:
[1] = system: IL-1 induced COX-2 expression; assay: MIF-dependent IL-1 induced fibroblast cyclooxygenase-2 expression (flow cytometry); type: cell-based, human; conditions: for Mean % inhibition COX2 expression: S112 fibroblasts, IL-1 0.1 ng/ml, 6 h
Source text: The activity of the compounds of formula (I) were further studied in a bioassay utilising MIF-dependent activation of human dermal fibroblasts. Sampey et al have shown that induction of the expression of cyclooxygenase-2 (COX-2) by the cytokine interleukin 1 (IL-1) is dependent upon the presence of MIF, i.e. can be prevented using specific anti-MIF monoclonal antibody ^(17). IL-1-induced COX-2 expression is therefore a MIF-dependent event.
S112 human dermal fibroblasts were propagated in RPMI/10% foetal calf serum (FCS). Prior to experimentation, cells were seeded at 2×10^5 cells/ml in RPMI/0.1% BSA for 18 hours. […] After 6 hours, cells were collected and intracellular COX-2 protein determined by permeabilisation flow cytometry, as described by Sampey et al ^(18). Cells permeabilised with 0.2% saponin were sequentially labelled with a mouse anti-human COX-2 monoclonal antibody and with sheep-anti-mouse F(ab)2 fragment labelled with fluoroscein isothiocyanate. Cellular fluorescence was determined using a flow cytometer. At least 5000 events were counted for each reading, each of which was performed in duplicate, and the results expressed in mean fluorescence intensity (MFI) after subtraction of negative control-labelled cell fluorescence.
In Table 2 and FIG. 2, the effect of each concentration of 2-(2-hydroxyethoxy)-2-(4-hydroxy-3-methylphenyl)-1,3-dioxolane (Compound 1) was determined by subtracting the IL-1+ compound-treated cell MFI from the IL-1-treated cell MFI, and expressed as % inhibition.

[2] = system: antigen-specific T cell activation; assay: MIF-dependent antigen-specific T cell activation (splenocytes, 3H-thymidine); type: cell-based, mouse; conditions: 100 nM-10 μM; mBSA 10 μg/ml; spleen cells of immunized C57Bl/6 mice; P<0.05; FIG. 5
Source text: The activity of compounds of formula (I) was further studied in a bioassay utilising MIF-dependent activation of murine T cell activation. The activation of T lymphocytes in response to exposure to a recall antigen is known to be dependent on the presence of MIF, i.e. can be prevented using specific anti-MIF monoclonal antibody^(7). Antigen-induced T cell activation is therefore a MIF-dependent phenomenon.
Splenocytes were obtained by Hank's buffered saline flushing of spleens obtained from C57Bl/6 mice previously immunized with methylated bovine serum albumin (mBSA, Sigma Chemical Co., Castle Hill, Australia). Mice were immunized on day 0 with 200 μg mBSA emulsified in 0.2 ml of Freund's complete adjuvant (FCA) injected subcutaneously into the flank skin. On day 7, the mice received 100 μg mBSA/0.1 ml FCA by intradermal injection at the base of the tail. Spleens were removed on day 14 after first immunisation and a single cell suspension was prepared in DMEM containing 5% FCS and 0.05% 2-mercaptoethanol. […] The T cell proliferation response was determined by measuring the amount of [^3H] thymidine incorporation during the final 18 hr. The cells were harvested and radioactivity incorporation into the DNA was measured with a Wallac 1409 liquid scintillation counter (Pharmacia, Turku, Finland).

[3] = system: MIF-induced proliferation of S112 human fibroblasts; assay: MIF-induced human fibroblast proliferation (3H-thymidine incorporation); type: cell-based
Method: The activity of a compound of formula (I) was studied in a bioassay utilising MIF-induced proliferation of human dermal fibroblasts. […] S112 human dermal fibroblasts were propagated in RPMI/10% foetal calf serum (FCS). Prior to experimentation, cells were seeded at 10^5 cells/ml in RPMI/0.1% BSA for 18 hours. Cells were treated with recombinant human macrophage migration inhibitory factor (MIF) 50 ng/ml and/or a compound of the invention at a concentration of 1 nM. The compound was combined with MIF at time point −30 minutes, prior to adding to cell culture at time point zero. At time point zero, culture medium was replaced with RPMI/10% FCS and treatments administered. At time point 30 hours, cells were pulsed with 1 μCi ^3H-thymidine. At time point 48 hours, cells were harvested using a semi-automated cell harvester. The radioactivity incorporated into DNA was determined by liquid scintillation counting, with results expressed as ^3H-thymidine incorporation.

[4] = system: IL-1 induced COX-2 expression; assay: Combination of MIF-antagonist with glucocorticoid: IL-1 induced fibroblast COX-2 expression; type: cell-based, human
Method: S112 human dermal fibroblasts were propagated in RPMI/10% foetal calf serum (FCS). Prior to experimentation, cells were seeded at 2×10^5 cells/ml in RPMI/0.1% BSA for 18 hours. Cells were treated with compound at 1-100 μM and 30 minutes later with recombinant human IL-1 (0.1 ng/ml). After 6 hours, cells were collected and intracellular COX-2 protein determined by permeabilisation flow cytometry, as described by Sampey et al ^(18). Cells permeabilised with 0.2% saponin were sequentially labelled with a mouse anti-human COX-2 monoclonal antibody and with sheep-anti-mouse F(ab)2 fragment labelled with fluoroscein isothiocyanate. Cellular fluorescence was determined using a flow cytometer. At least 5000 events were counted for each reading, each of which was performed in duplicate, and the results expressed in mean fluorescence intensity (MFI) after subtraction of negative control-labelled cell fluorescence.
The above in vitro assay (Biological Example 2) for analysing the effect of MIF antagonists on IL-1 induced COX-2 expression was performed using 2-(2-hydroxyethoxy)-2-(4′-hydroxy-3′-methylphenyl)-1,3-dioxolane (Compound 1) (50 μM), dexamethasone (1 nM) or a combination of dexamethasone (1 nM) and Compound 1 (50 μM). COX-2 expression was expressed as the mean fluorescence intensity (MFI) as measured by flow cytometry, after deduction of the MFI for control-labelled samples, as described by Sampey et al. ^(18).

[5] = system: S112 human dermal fibroblasts; assay: Cytotoxicity: apoptosis by annexin V and propidium iodide flow cytometry; type: cell-based; conditions: 50 μM versus control-treated cells; FIG. 7
Source text: A valuable characteristic of a therapeutic material is a lack of toxicity. The compounds of formula (I) may have low toxicity towards cells. To examine this in vitro, the ability of 2-(2-hydroxyethoxy)-2-(4-hydroxy-3-methylphenyl)-1,3-dioxolane (Compound 1) to induce apoptosis (“programmed cell death) was investigated. A lack of cytotoxicity would be evidenced by the finding of equivalent proportions of apoptotic and viable cells in control- and compound-treated cells.
To examine the cytotoxicity of compounds of formula (I), S112 human dermal fibroblasts were exposed to a therapeutic concentration (50 μM) of 2-(2-hydroxyethoxy)-2-(4-hydroxy-3-methylphenyl)-1,3-dioxolane (Compound 1) or vehicle (control) and analysed for apoptosis by flow cytometric analysis of annexin V and propidium iodide staining, as described by Leech et al. ^(19). Toxicity was assessed by analysis of apoptosis using flow cytometric detection of cell surface Annexin V binding and propidium iodide staining. At least 5000 events were analysed for each experiment. Cells positive for both Annexin V and propidium iodide were designated as apoptotic and cells negative for both Annexin V and propidium iodide were designated as viable. Results are expressed as the percentage (%) of cells with each of these labels.

SMILES | inhibition of IL-induced COX-2 expression, MFI ([1]; IL-1+cpd2 versus IL-1, P<0.05, FIG. 4) | reduction in antigen-specific T cell activation [2] | Mean cpm (3H-thymidine incorporation) ([3]; S112 cells, MIF 50 ng/ml + compound 1 nM, untreated 3245, MIF alone 4415, n=9) | inhibition of MIF-induced S112 human fibroblast proliferation ([3]; compound 1 nM pre-incubated with MIF, P<0.05) | Mean % inhibition COX2 expression ([1]; 0.01 μM) | Mean % inhibition COX2 expression ([1]; 0.1 μM) | Mean % inhibition COX2 expression ([1]; 1 μM) | Mean % inhibition COX2 expression ([1]; 10 μM) | reduction in IL-1 induced COX-2 expression ([1]; 50 μM, P<0.01, FIG. 2) | Mean % inhibition COX2 expression ([1]; 50 μM) | dose dependence of reduction in COX-2 expression ([1]; Table 2 and FIG. 3) | Mean COX-2 expression (MFI) ([4]; IL-1 + dexamethasone 1 nM + Compound 1 50 μM, control 0.7400, IL-1 49.37) | enhancement of dexamethasone inhibition of IL-1-induced COX-2 expression ([4]; dexamethasone 1 nM + Compound 1 50 μM versus dexamethasone alone, P<0.05) | apoptotic cell numbers (Annexin V and propidium iodide positive) [5] | viable cell numbers (Annexin V and propidium iodide negative) [5]
OCCOC1(c2ccc(O)cc2)OCCO1 [Compound 2, 2-(2-hydroxyethoxy)-2-(4-hydroxyphenyl)-1,3-dioxolane] | Significant inhibition | significant dose-dependent reduction |  |  |  |  |  |  |  |  |  |  |  |  | 
Cc1cc(C2(OCCO)OCCO2)ccc1O [Compound 1, 2-(2-hydroxyethoxy)-2-(4-hydroxy-3-methylphenyl)-1,3-dioxolane] |  |  | 2994* cpm | significantly inhibited | 10.5% | 13.2% | 15.6* % | 19.5* % | significant reduction | 31.4* % | dose-dependent reduction | 6.013* MFI | significantly greater inhibition | No significant increase | no significant decrease
